From patent EP1388586A2, “Identification of broadly reactive DR restricted epitopes” (priority 1998, dated 1999)
Like-named read-outs stand apart in the source and are kept apart here. Square brackets hold non-standard residues; d marks the D form. Ends that are not written are not given here. Peptide text beside a SMILES is read from it.

What was measured:
DRB1*0701 (DR7) = DRB1*0701 (DR7) (Homo sapiens, UniProt P01903+P01911, A100R/A102G/A103Q/D57E/D86V/E43K/F76Y/K127E/L162R/M171V/P40G/Q125H/Q99D/R33Q/R42Y/R54Q/S133A/S66F/T210M/V115G/Y107V/Y59L/Y89S); experiment: Class II peptide-binding assay, DR7;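 also: unlabeled peptides compete with an iodinated probe peptide for binding to affinity-purified HLA-DR at neutral pH, DR amount titered to bind a small tracer fraction, IC50 approximating Kd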
DRB5*0101 (DR2w2a) = molecular target: T1, DRB5*0101 (DR2w2a) (Homo sapiens, UniProt P01903+Q30154); experiment: Class II peptide-binding assay, DR2w2a (DR2w2B2);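 also: competitive binding assay: unlabeled peptide inhibiting binding of a radiolabeled probe peptide to purified DR molecules at pH 7.0, IC50 approximating Kd, lower means stronger binding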
T1 construct: used as sources of human HLA class II molecules; endogenous in cells; host or cells: GM3107 (EBV-transformed homozygous B cell line)
Procedure: (§1) Class II peptide-binding assays. […] These assays were chosen as to be representative of the most common DR alleles.
(§2) Radiolabeled peptides were iodinated using the chloramine-T method. […] In appropriate stoichiometric conditions, the IC50 of an unlabeled test peptide to the purified DR is a reasonable approximation of the affinity of interaction (Kd). Peptides were tested in two to four completely independent experiments. […] Final detergent concentration in the incubation mixture was 0.05% Nonidet P-40. Assays were performed at pH 7.0 with the exception of DR3, which was performed at pH 4.5, and DRw53, which was performed at pH 5.0.
(§3) All subsequent inhibition and direct binding assays were the performed using these class II concentrations.

DRB10404 (DR4w14) = molecular target: T2, DRB10404 (DR4w14) (Homo sapiens, UniProt P01903+P01911, A100R/A169T/F76Y/I96L/K127E/L162R/M171V/N62H/P40V/Q125Y/R42H/S133A/S149N/S66Y/V209L/W38E); experiment: Class II peptide-binding assay, DR4w14;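 also: unlabeled peptides compete with a radiolabeled probe for binding to affinity-purified HLA-DR, neutral pH, class II amount titrated to bind a small fraction of label, IC50 approximates Kd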
T2 construct: used as sources of human HLA class II molecules; endogenous in cells; host or cells: BIN40 (EBV-transformed homozygous B cell line)

DRB1*0101 (DR1) = molecular target: T3, DRB1*0101 (DR1) (Homo sapiens, UniProt P01903+P01911, A100R/D57E/F55L/F60I/F76Y/I96L/L162R/M171V/P40L/Q125E/R42F/V115G/Y59C); experiment: Class II peptide-binding assay, DR1;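 also: competition assay: unlabeled test peptides inhibit binding of a radiolabeled probe peptide to purified DR, with half-maximal inhibition taken as an approximate dissociation constant Kd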
T3 construct: used as sources of human HLA class II molecules; endogenous in cells; host or cells: LG2 (EBV-transformed homozygous B cell line)

DRB1*1101 (DR5w11) = molecular target: T4, DRB1*1101 (DR5w11) (Homo sapiens, UniProt P01903+P01911, A100R/A169T/A87E/I96F/K41T/L162R/M171V/P40S/Q125H/Q178H/Q39Y/Q99D/R42S/S66Y/T262R/V115G/W38E); experiment: Class II peptide-binding assay, DR5w11;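 also: competition by unlabeled test peptide against iodinated probe peptide binding to affinity-purified HLA-DR, class II amount titrated beforehand, half-maximal inhibitory concentration read as approximate Kd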
T4 construct: used as sources of human HLA class II molecules; endogenous in cells; host or cells: SWEIG (EBV-transformed homozygous B cell line)

DRB1*0401 (DR4w4) = molecular target: T5, DRB1*0401 (DR4w4) (Homo sapiens, UniProt P01903+P01911, A100K/A169T/F76Y/I96L/K127E/L162R/M171V/N62H/P40V/Q125Y/R42H/S133A/S149N/S66Y/V115G/V209L/W38E); experiment: Class II peptide-binding assay, DR4w4;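 also: unlabeled test peptides compete with a radiolabeled probe peptide for binding to affinity-purified HLA-DR, with DR amount titrated to capture a small fraction of label, IC50 approximating Kd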
T5 construct: used as sources of human HLA class II molecules; endogenous in cells; host or cells: PREISS (EBV-transformed homozygous B cell line)

DRB1*0301 (DR3w17) = molecular target: T6, DRB1*0301 (DR3w17) (Homo sapiens, UniProt P01903+P01911, A100K/A102G/A103R/A169T/F55Y/I96L/K41T/L162R/M171V/P40S/Q125H/Q178H/Q39Y/R42S/S66N/T106N/T262R/W38E/Y61H); experiment: Class II peptide-binding assay, DR3 (pH 4.5);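 also: unlabeled peptide competing with a radiolabeled probe peptide for binding to affinity-purified HLA-DR3, IC50 regarded as an approximation of Kd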
T6 construct: used as sources of human HLA class II molecules; endogenous in cells; host or cells: MAT (EBV-transformed homozygous B cell line)

[1] = test system: panel of purified HLA DR molecules; format: binding, human;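 also: competitive inhibition of radiolabeled probe peptide binding to purified HLA DR molecules, with inhibitory potency of unlabeled peptides taken as an approximation of affinity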
Procedure: as §1, §2, §3

[2] = read-out: DR7 nM (In IC50 Format), purified HLA DR7
[3] = read-out: DR2w2B2 nM (In IC50 Format), purified HLA DR2w2β2
[4] = read-out: DR4w14 nM (In IC50 Format), purified HLA DR4w14
[5] = read-out: DR1 nM (In IC50 Format), purified HLA DR1
[6] = read-out: DR5w11 nM (In IC50 Format), purified HLA DR5w11
[7] = read-out: DR4w4 nM (In IC50 Format), purified HLA DR4w4
[8] = read-out: DR3 nM (In IC50 Format), purified HLA DR3
[9] = read-out: In IC50 Format DR7, Table VIII
[10] = read-out: In IC50 Format DR2w2β2, Table VIII
[11] = read-out: In IC50 Format DR4w14, Table VIII
[12] = read-out: In IC50 Format DR1, Table VIII
[13] = read-out: In IC50 Format DR5w11, Table VIII
[14] = read-out: In IC50 Format DR4w4, Table VIII
[15] = read-out: In IC50 Format DR3, Table VIII
[16] = read-out: DR7 nM, Table VIII, In IC50 Format
[17] = read-out: DR2w2B2 nM, Table VIII, In IC50 Format
[18] = read-out: DR4w14 nM, Table VIII, In IC50 Format
[19] = read-out: DR1 nM, Table VIII, In IC50 Format
[20] = read-out: DR5w11 nM, Table VIII, In IC50 Format
[21] = read-out: DR4w4 nM, Table VIII, In IC50 Format
[22] = read-out: DR3 nM, Table VIII, In IC50 Format

T4 sequence (P01903 26-254, other chains not shown): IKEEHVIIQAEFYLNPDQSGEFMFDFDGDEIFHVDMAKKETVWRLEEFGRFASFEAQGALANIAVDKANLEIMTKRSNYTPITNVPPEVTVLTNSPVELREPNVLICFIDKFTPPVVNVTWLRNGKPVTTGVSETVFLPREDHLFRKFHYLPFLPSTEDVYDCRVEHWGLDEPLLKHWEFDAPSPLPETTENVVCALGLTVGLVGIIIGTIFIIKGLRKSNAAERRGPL
T6 sequence (P01903 26-254, other chains not shown): as above

Which results are given for LVHSSNNFGAILSSTNVGS [Peptide 735.04]?
IC50 (DRB1*0701 (DR7); [2]): 961 nM; IC50 (DRB5*0101 (DR2w2a); [3]): 5000 nM; IC50 (DRB10404 (DR4w14); [4]): 12.5 nM; IC50 (DRB1*0101 (DR1); [5]): 161 nM; IC50 (DRB1*1101 (DR5w11); [6]): 1250 nM; IC50 (DRB1*0401 (DR4w4); [7]): 11 nM; IC50 (DRB1*0301 (DR3w17); [8]): 15800 nM

Which results are given for LVEALYLVSGERGFFYTPKT [Peptide 734.03]?
IC50 (DRB1*0701 (DR7); [2]): 926 nM; IC50 (DRB5*0101 (DR2w2a); [3]): 1820 nM; IC50 (DRB10404 (DR4w14); [4]): 704 nM; IC50 (DRB1*0101 (DR1); [5]): 39.7 nM; IC50 (DRB1*1101 (DR5w11); [6]): 2500 nM; IC50 (DRB1*0401 (DR4w4); [7]): 1150 nM; IC50 (DRB1*0301 (DR3w17); [8]): 1570 nM

How did the “Total Alleles Bound” value [1] turn out when `CC[C@H](C)[C@H](NC(=O)[C@H](CO)NC(=O)[C@H](CO)NC(=O)[C@H](CC(N)=O)NC(=O)[C@@H](NC(=O)[C@@H](NC(=O)[C@H](CC(N)=O)NC(=O)[C@H](Cc1ccccc1)NC(=O)[C@@H](NC(=O)[C@H](CO)NC(=O)[C@@H](N)CO)C(C)C)C(C)C)C(C)C)C(=O)NCC(=O)N[C@@H](CC(C)C)C(=O)N[C@H](C(=O)N[C@@H](CCSC)C(=O)O)[C@@H](C)CC` [Peptide 27.392] was run?
Its value is 6.

With NPVVHFFKNIVTPRTPPPS [Peptide 765.09] as the compound, how does the IC50 (DRB1*0701 (DR7); [2]) read?
Its IC50 is 66.8 nM.

And the IC50 (DRB5*0101 (DR2w2a); [3])?
The IC50 was 158 nM.

And the IC50 (DRB10404 (DR4w14); [4])?
The IC50 was 35.7 nM.

What about the IC50 (DRB1*0101 (DR1); [5]) of the same compound?
The IC50 was 13.5 nM.

And the IC50 (DRB1*1101 (DR5w11); [6])?
Its IC50 is 18.7 nM.

What about the IC50 (DRB1*0401 (DR4w4); [7]) of the same compound?
Its IC50 is 7.4 nM.

And the IC50 (DRB1*0301 (DR3w17); [8])?
Its IC50 is 50000 nM.

With `CC[C@H](C)[C@H](NC(=O)[C@@H](NC(=O)[C@@H](NC(=O)[C@H](CCC(=O)O)NC(=O)[C@H](CCCNC(=N)N)NC(=O)CN)[C@@H](C)O)C(C)C)C(=O)N[C@@H](CCC(=O)O)C(=O)N[C@@H](Cc1ccc(O)cc1)C(=O)N[C@@H](CC(C)C)C(=O)N[C@H](C(=O)N[C@@H](CO)C(=O)N[C@@H](Cc1ccccc1)C(=O)NCC(=O)N[C@H](C(=O)N[C@@H](Cc1c[nH]c2ccccc12)C(=O)O)C(C)C)C(C)C` [Peptide 802.04] as the compound, how does the IC50 (DRB1*0701 (DR7); [2]) read?
Its IC50 is 67.6 nM.

And the IC50 (DRB5*0101 (DR2w2a); [3])?
The IC50 was 1330 nM.

What about the IC50 (DRB10404 (DR4w14); [4]) of the same compound?
The IC50 was 32.3 nM.

And the IC50 (DRB1*0101 (DR1); [5])?
The IC50 was 12.8 nM.

And the IC50 (DRB1*1101 (DR5w11); [6])?
Its IC50 is 1540 nM.

What about the IC50 (DRB1*0401 (DR4w4); [7]) of the same compound?
The IC50 was 833 nM.

What about the IC50 (DRB1*0301 (DR3w17); [8]) of the same compound?
The IC50 was 16700 nM.

Which results are given for VHHANENIFYCPIAIMSALA [Peptide 703.03]?
IC50 (DRB1*0701 (DR7); [9]): > 6250 nM; IC50 (DRB5*0101 (DR2w2a); [10]): > 10000 nM; IC50 (DRB10404 (DR4w14); [11]): 333 nM; IC50 (DRB1*0101 (DR1); [12]): 147 nM; IC50 (DRB1*1101 (DR5w11); [13]): 1110 nM; IC50 (DRB1*0401 (DR4w4); [14]): 63.3 nM; IC50 (DRB1*0301 (DR3w17); [15]): 42900 nM

What does the source list for `CC(C)C[C@H](NC(=O)[C@@H](NC(=O)[C@H](C)NC(=O)[C@H](C)NC(=O)[C@H](C)NC(=O)[C@H](CCCCN)NC(=O)[C@H](Cc1ccccc1)NC(=O)[C@H](C)NC(=O)[C@@H](C)N)[C@@H](C)O)C(=O)N[C@@H](CCCCN)C(=O)N[C@@H](C)C(=O)N[C@@H](C)C(=O)N[C@H](C)C(N)=O` [Peptide 871.08] (H-[dA]AFKAAATLKAA[dA]-NH2)?
IC50 (DRB1*0701 (DR7); [16]): 111 nM; IC50 (DRB5*0101 (DR2w2a); [17]): 3.9 nM; IC50 (DRB10404 (DR4w14); [18]): 10 nM; IC50 (DRB1*0101 (DR1); [19]): 1.8 nM; IC50 (DRB1*1101 (DR5w11); [20]): 9 nM; IC50 (DRB1*0401 (DR4w4); [21]): 1.9 nM; IC50 (DRB1*0301 (DR3w17); [22]): 15000 nM

What does the source list for DVFKELKVHHANENI [Peptide 519.00]?
IC50 (DRB1*0701 (DR7); [9]): 463 nM; IC50 (DRB5*0101 (DR2w2a); [10]): 571 nM; IC50 (DRB10404 (DR4w14); [11]): 250 nM; IC50 (DRB1*0101 (DR1); [12]): 9.6 nM; IC50 (DRB1*1101 (DR5w11); [13]): 118 nM; IC50 (DRB1*0401 (DR4w4); [14]): 40.9 nM; IC50 (DRB1*0301 (DR3w17); [15]): 150000 nM

Which IC50 (DRB1*0701 (DR7); [16]) does the source give for DTVKLMYKGQPMTFRLLLV [Peptide 866.01] here?
Its IC50 is 3570 nM.

And the IC50 (DRB5*0101 (DR2w2a); [17])?
Its IC50 is 7.7 nM.

What about the IC50 (DRB10404 (DR4w14); [18]) of the same compound?
The IC50 was 10000 nM.

And the IC50 (DRB1*0101 (DR1); [19])?
The IC50 was 23 nM.

What about the IC50 (DRB1*1101 (DR5w11); [20]) of the same compound?
Its IC50 is 169 nM.

And the IC50 (DRB1*0401 (DR4w4); [21])?
Its IC50 is 176 nM.

And the IC50 (DRB1*0301 (DR3w17); [22])?
Its IC50 is 42900 nM.

Which IC50 (DRB1*0701 (DR7); [9]) does the source give for FFKNIVTPRFFKNIVTPR [Peptide 613.03] here?
Its IC50 is 272 nM.

And the IC50 (DRB5*0101 (DR2w2a); [10])?
The IC50 was 188 nM.

What about the IC50 (DRB10404 (DR4w14); [11]) of the same compound?
The IC50 was 2000 nM.

And the IC50 (DRB1*0101 (DR1); [12])?
The IC50 was 200 nM.

And the IC50 (DRB1*1101 (DR5w11); [13])?
The IC50 was 1670 nM.

And the IC50 (DRB1*0401 (DR4w4); [14])?
The IC50 was 4500 nM.

And the IC50 (DRB1*0301 (DR3w17); [15])?
Its IC50 is 75000 nM.
